Literature values as cited in patent US7579360B2, “Triazolopyridine 11-beta hydroxysteroid dehydrogenase type I inhibitors” (Bristol-Myers Squibb Company, priority 2005, dated 2009).

Molecular target: T1, 11beta-HSD1 (Homo sapiens, UniProt P28845)
T1 construct: host or cells: patients with type 2 diabetes (liver, in vivo)
Conditions: mildly overweight individuals with type 2 diabetes, seven days, versus placebo

T1 sequence (P28845 whole entry): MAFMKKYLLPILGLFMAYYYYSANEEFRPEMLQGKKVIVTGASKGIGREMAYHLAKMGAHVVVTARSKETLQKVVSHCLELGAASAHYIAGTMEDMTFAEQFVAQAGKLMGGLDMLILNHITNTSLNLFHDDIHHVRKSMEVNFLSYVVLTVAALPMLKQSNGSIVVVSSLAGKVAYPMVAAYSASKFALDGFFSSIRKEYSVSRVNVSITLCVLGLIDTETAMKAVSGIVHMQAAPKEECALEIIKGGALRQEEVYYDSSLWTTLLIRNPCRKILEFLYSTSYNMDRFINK

hepatic glucose production: decrease
Compound: CC1(C)[C@@H](OC(=O)CCC(=O)O)CC[C@]2(C)[C@H]3C(=O)C=C4[C@@H]5C[C@@](C)(C(=O)O)CC[C@]5(C)CC[C@@]4(C)[C@]3(C)CC[C@@H]12 [carbenoxolone]
